# Data taken from PubChem BioAssay (NCI).
#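 Dose response: 5 concentrations. Exposure: 48 h. Format: 96-well plates. Endpoint: linear interpolation; highest concentration if not reached. TGI: total growth inhibition.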 Active and inactive are the calls of the source. Rule as the data show it: active = GI50 below about 0.43 µM; inactive = the rest.
# Legend:
# Assay in all cases: NCI tumour cell line growth inhibition, 48 h
# [1] = system: NCI-H460 lung
# [2] = system: SK-MEL-28 melanoma
# [3] = system: SF-295 CNS
# [4] = system: SK-OV-3 ovarian
# [5] = system: M14 melanoma
# [6] = system: UACC-257 melanoma
# [7] = system: U251 CNS
# [8] = system: BT-549 breast
# [9] = system: HT29 colon
# [10] = system: EKVX NSCLC
# [11] = system: OVCAR-8 ovarian
# [12] = system: DU-145 prostate
# [13] = system: NCI-H23 lung
# [14] = system: LOX IMVI melanoma
# [15] = system: HL-60(TB) leukemia
# [16] = system: SN12C renal
# [17] = system: OVCAR-3 ovarian
# [18] = system: OVCAR-5 ovarian
# [19] = system: SK-MEL-2 melanoma
# [20] = system: SK-MEL-5 melanoma
# [21] = system: CAKI-1 renal
# [22] = system: MDA-MB-435
# [23] = system: SR leukemia
# [24] = system: RPMI-8226 leukemia
# [25] = system: A498 renal
# [26] = system: IGROV1 ovarian
# [27] = system: SF-539 CNS
# [28] = system: MOLT-4 leukemia
# [29] = system: HOP-92 NSCLC
# [30] = system: A549 NSCLC
# [31] = system: UO-31 renal
# [32] = system: HCT-116 colon
# [33] = system: HCC-2998 colon
# [34] = system: COLO 205 colon
# [35] = system: 786-0 renal
# [36] = system: HOP-62 NSCLC
# [37] = system: PC-3 prostate
# [38] = system: SNB-75 CNS
# [39] = system: UACC-62 melanoma
# [40] = system: NCI-H226 lung
# [41] = system: K-562 leukemia
# [42] = system: SW-620 colon
# [43] = system: RXF 393 renal
# [44] = system: MALME-3M melanoma
# [45] = system: NCI-H522 lung
# [46] = system: OVCAR-4 ovarian
# [47] = system: SF-268 CNS
# [48] = system: MDA-MB-231 breast
# [49] = system: SNB-19 CNS
# [50] = system: KM12 colon
# [51] = system: MDA-N
# [52] = system: CCRF-CEM leukemia
# [53] = system: HCT-15 colon
# [54] = system: NCI/ADR-RES ovarian
# [55] = system: HS 578T breast
# [56] = system: TK-10 renal
# [57] = system: ACHN renal
# [58] = system: T-47D breast
# [59] = system: MCF7 breast
smiles,measurement,setting,value
CCCC(=O)OCC(COC(=O)CCC)OC(=O)CCC,TGI,[1],> 100 µM
same,outcome,[1],inactive
same,TGI,[2],> 100 µM
same,outcome,[2],inactive
same,TGI,[3],> 100 µM
same,outcome,[3],inactive
same,TGI,[4],> 100 µM
same,outcome,[4],inactive
same,TGI,[5],> 100 µM
same,outcome,[5],inactive
same,TGI,[6],> 100 µM
same,outcome,[6],inactive
same,TGI,[7],> 100 µM
same,outcome,[7],inactive
same,TGI,[8],> 100 µM
same,TGI,[9],> 100 µM
same,outcome,[9],inactive
same,TGI,[10],> 100 µM
same,outcome,[10],inactive
same,TGI,[11],> 100 µM
same,outcome,[11],inactive
same,TGI,[12],> 100 µM
same,outcome,[12],inactive
same,TGI,[13],> 100 µM
same,outcome,[13],inactive
same,TGI,[14],> 100 µM
same,outcome,[14],inactive
same,TGI,[15],90.7 µM
same,outcome,[15],inactive
same,TGI,[16],> 100 µM
same,outcome,[16],inactive
same,TGI,[17],> 100 µM
same,TGI,[18],> 100 µM
same,TGI,[19],> 100 µM
same,outcome,[19],inactive
same,TGI,[20],> 100 µM
same,outcome,[20],inactive
same,TGI,[21],> 100 µM
same,outcome,[21],inactive
same,TGI,[22],> 100 µM
same,outcome,[22],inactive
same,outcome,[23],inactive
same,TGI,[24],> 100 µM
same,outcome,[24],inactive
same,TGI,[25],> 100 µM
same,outcome,[25],inactive
same,TGI,[26],> 100 µM
same,TGI,[27],> 100 µM
same,outcome,[27],inactive
same,TGI,[28],> 100 µM
same,outcome,[28],inactive
same,TGI,[29],> 100 µM
same,TGI,[30],> 100 µM
same,outcome,[30],inactive
same,TGI,[31],> 100 µM
same,outcome,[31],inactive
same,TGI,[32],> 100 µM
same,outcome,[32],inactive
same,TGI,[33],> 100 µM
same,outcome,[33],inactive
same,TGI,[34],> 100 µM
same,outcome,[34],inactive
same,TGI,[35],> 100 µM
same,outcome,[35],inactive
same,TGI,[36],> 100 µM
same,outcome,[36],inactive
same,TGI,[37],> 100 µM
same,outcome,[37],inactive
same,TGI,[38],> 100 µM
same,outcome,[38],inactive
same,TGI,[39],> 100 µM
same,TGI,[40],> 100 µM
same,outcome,[40],inactive
same,TGI,[41],> 100 µM
same,outcome,[41],inactive
same,TGI,[42],> 100 µM
same,outcome,[42],inactive
same,TGI,[43],> 100 µM
same,TGI,[44],> 100 µM
same,outcome,[44],inactive
same,TGI,[45],> 100 µM
same,TGI,[46],> 100 µM
same,outcome,[46],inactive
same,TGI,[47],> 100 µM
same,outcome,[47],inactive
same,TGI,[48],> 100 µM
same,outcome,[48],inactive
same,TGI,[49],> 100 µM
same,outcome,[49],inactive
same,TGI,[50],> 100 µM
same,outcome,[50],inactive
same,TGI,[51],> 100 µM
same,outcome,[51],inactive
same,TGI,[52],> 100 µM
same,outcome,[52],inactive
same,TGI,[53],> 100 µM
same,outcome,[53],inactive
same,TGI,[54],88.6 µM
same,outcome,[54],inactive
same,TGI,[55],> 100 µM
same,outcome,[55],inactive
same,TGI,[56],> 100 µM
same,outcome,[56],inactive
same,TGI,[57],> 100 µM
same,outcome,[57],inactive
same,TGI,[58],> 100 µM
same,TGI,[59],> 100 µM
same,outcome,[59],inactive
C[C@]12OC(=O)[C@]3(O)CC[C@H]4[C@@H](C[C@@H](O)[C@@]5(Cl)CC=CC(=O)[C@]45C)[C@]45OCC6C(=O)O[C@@H]1C[C@@]6(C)[C@H](C4=O)[C@@]32O5 (some centres not stated),TGI,[1],9.54 µM
same,TGI,[2],75 µM
same,TGI,[3],12.4 µM
same,TGI,[4],10.9 µM
same,TGI,[5],2.47 µM
same,TGI,[6],8.2 µM
same,TGI,[7],15 µM
same,TGI,[8],2.27 µM
same,TGI,[9],5.35 µM
same,TGI,[10],4.91 µM
same,TGI,[11],8.39 µM
same,TGI,[12],24.3 µM
same,TGI,[13],1.83 µM
same,TGI,[14],6.46 µM
same,TGI,[15],12.8 µM
same,TGI,[16],19.3 µM
same,TGI,[17],6.65 µM
same,TGI,[18],3.23 µM
same,TGI,[19],2.71 µM
same,TGI,[20],13.2 µM
same,TGI,[21],4.03 µM
same,TGI,[22],23.8 µM
same,TGI,[23],14.2 µM
same,TGI,[24],8.6 µM
same,TGI,[25],2.91 µM
same,TGI,[26],2.74 µM
same,TGI,[27],1.97 µM
same,TGI,[28],17.4 µM
same,TGI,[29],5.68 µM
same,TGI,[30],75 µM
same,TGI,[31],2.57 µM
same,TGI,[32],12 µM
same,TGI,[33],2.55 µM
same,TGI,[34],17.1 µM
same,TGI,[35],11.3 µM
same,TGI,[36],10.3 µM
same,TGI,[37],8.71 µM
same,TGI,[38],19.6 µM
same,TGI,[39],4.2 µM
same,TGI,[40],9.37 µM
same,TGI,[41],23.8 µM
same,TGI,[42],12.6 µM
same,TGI,[43],1.04 µM
same,TGI,[44],5.04 µM
same,TGI,[45],1.14 µM
same,TGI,[46],8.63 µM
same,TGI,[47],7.39 µM
same,TGI,[48],28.6 µM
same,TGI,[49],18.2 µM
same,TGI,[50],8.59 µM
same,TGI,[51],17 µM
same,TGI,[52],6.69 µM
same,TGI,[53],7.61 µM
same,TGI,[54],60.6 µM
same,TGI,[55],44.5 µM
same,TGI,[56],7.18 µM
same,TGI,[57],5.9 µM
same,TGI,[58],23.3 µM
same,TGI,[59],4 µM
